Assays:
Format in all cases: cell-based
[1] = tested on: Nedd8-cullin; assay: Cullin neddylation, protein immunoblotting in HepG2 cells
From the text: Cells were then collected and assayed for protein immunoblotting. […]
DCN1 protein is believed to harbor a UBC12 binding pocket. Scott et al, Cell 757:1671-84 (2014). […] Scott et al. (2014). The N-terminal acetylation acts as an avidity enhancer within an interconnected multiprotein complex. Science, 554:674-8 (2011). Specifically, n-terminal of UBC12 is acetylated (FIG. 1A, yellow) and completely buried inside the hydrophobic pocket within DCN1 (4gao.PDB, FIG. 1B). Small molecule inhibition of the DCN1 hydrophobic pocket would presumably disrupt UBC12 binding, and thus disrupt Neddylation of Cullin protein. Potential ligands were assessed that might fit the DCN1 domain cavities (FIG. 1B). 3-(pentylamino)-5-phenylcyclohex-2-en-1-one was selected for future testing (FIG. 1C). […] MLN4924 was used as a positive control.

[2] = tested on: HepG2 cells; assay: Mitotic spindle immunostaining (α-tubulin, DAPI); conditions: 1 uM, 24 h (FIG. 7B)
Method: Cells were then washed with PBS and fixed with 4% paraformaldehyde for 20 min. Cells were co-immunostained for either α-tubulin. Cells were counterstained with DAPI to visualize the nucleus.
The integrity of the centrosome and mitotic spindles after 3-(decylamino)-5-phenylcyclohex-2-en-1-one treatment was examined. HepG2 cells were stained with antibody to α-tubulin to visualize the mitotic spindle (FIG. 7A-B). […] The circular prophase configurations were observed (FIG. 7B, top panel). One classic phenotype of the circular chromosome configuration is circular figures arranged on monopolar spindles around large centrosomes. No spindles assembly in metaphase was observed (FIG. 7B, lower panel).

[3] = tested on: human lung tissue; assay: LPS-treated human lung slices, cytokines and immunoblotting
Method: Cells were then treated with LPS (10 ng/ml) for additional 2 h. Media were then collected and TNF concentration was determined by ELISA. […] Lung tissue was collected and assayed for immunoblotting. Culture media was collected and assayed for cytokines.
3-(decylamino)-5-phenylcyclohex-2-en-1-one was next tested in human lung tissue. Human lung slices were pretreated with 3-(decylamino)-5-phenylcyclohex-2-en-1-one for 18 h before LPS treatment (100 ng/ml) for additional 4 h. […] 3-(decylamino)-5-phenylcyclohex-2-en-1-one reduced nedd8-cullins level and rescued IκBα in a dose dependent manner.

[4] = human lung slices, dose dependent

CCCCCCCCCCNC1=CC(=O)CC(c2ccccc2)C1 (centres unmarked) [BC1558, 3-(decylamino)-5-phenylcyclohex-2-en-1-one]
neddylation of several cullin isoforms ([1]; 10 μM, time dependent (FIG. 6A)): drastically reduced
neddylation of several cullin isoforms ([1]; 48 h, dose dependent (FIG. 5A)): drastically reduced
activity compared with MLN4924 ([1]; 48 h, various concentration (FIG. 4)): comparable activity
reducing Cullin Neddylation ([1]; 48 h, various concentrations (FIG. 3C)): exhibited activity
integrity of the centrosome and mitotic spindles [2]: Abnormal cells with several representative mitotic abnormalities were also detected
IκBα [3, 4]: rescued
nedd8-cullins level [3, 4]: reduced
LPS induced IL1, IL6 and TNF release from lung tissue ([3]; pretreated 18 h, LPS 100 ng/ml for 4 h): potently inhibited
